Among the data in patent US6677330B1, “Fluorides of 4-substituted piperidine derivatives” (priority 1999, dated 2004) are melting point and IC50 values, retold here.

Where a name gives a salt, the structure may show the parent alone.

Test system in the first series: not given
Test: not given
Conditions: not given
With `COc1cc2c(cc1OC)C(=O)C(F)(CC1CCN(Cc3ccccn3)CC1)C2` (stereo not drawn) (as salt: hydrochloride), the melting point lay in the range of 177 to 180 °C.
On the same count and under the same terms, in the case of `COc1cc2c(cc1OC)C(=O)C(F)(CC1CCN(CC3OCCO3)CC1)C2` (stereo not drawn) (as salt: hydrochloride) it was 143 to 145 °C.
Still for that read-out and setting: then `COc1cc2c(cc1OC)C(=O)C(F)(CC1CCN(Cc3cccc(C#N)c3)CC1)C2` (stereo not drawn) (as salt: hydrochloride), with 139 to 141 °C.

The target in the next series is T1, acetylcholinesterase (Rattus norvegicus, UniProt P37136).
T1 construct: Using a rat brain homogenate as a source of acetylcholinesterase; from tissue; host or cells: rat brain homogenate
T1 sequence (P37136 32-614): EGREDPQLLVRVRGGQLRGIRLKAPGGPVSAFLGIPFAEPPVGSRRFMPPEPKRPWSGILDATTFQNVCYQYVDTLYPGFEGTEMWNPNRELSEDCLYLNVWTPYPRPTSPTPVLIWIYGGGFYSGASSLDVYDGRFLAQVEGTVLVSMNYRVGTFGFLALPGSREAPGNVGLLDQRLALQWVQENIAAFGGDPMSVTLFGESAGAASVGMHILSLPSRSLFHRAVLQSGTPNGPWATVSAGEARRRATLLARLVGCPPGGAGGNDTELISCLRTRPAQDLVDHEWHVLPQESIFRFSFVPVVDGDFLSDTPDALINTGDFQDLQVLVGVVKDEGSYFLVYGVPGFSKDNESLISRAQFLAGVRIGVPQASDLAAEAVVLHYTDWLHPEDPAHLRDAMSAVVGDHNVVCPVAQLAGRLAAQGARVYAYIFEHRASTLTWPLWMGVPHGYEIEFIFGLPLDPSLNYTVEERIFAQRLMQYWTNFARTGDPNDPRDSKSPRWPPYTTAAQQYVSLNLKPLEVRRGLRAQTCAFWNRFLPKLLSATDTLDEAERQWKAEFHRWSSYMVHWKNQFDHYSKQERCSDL
The series can be described thus: biochemical. The settings on record: rat brain homogenate as enzyme source; acetylthiocholine substrate, DTNB, absorbance at 412 nm; read-out: IC50 (50% inhibitory concentration on acetylcholinesterase). As for the experimental part:
Inhibitory effect on acetylcholinesterase in vitro
Using a rat brain homogenate as a source of acetylcholinesterase, the esterase activity was determined in accordance with the method of Ellman et al^1). Acethylthiocholine (as a substrate), a test compound and DTNB (5,5′-dithiobis(2-nitrobenzoic acid)) were added to the […] brain homogenate, and then incubated. Then, the resulting yellow product produced by the reaction of the resulting thiocholine with DTNB was determined for the change in absorbanceat 412 nm, to determine the acethylcholinesterase activity.
^1); Ellman. G. L., Courtney, K. D., Andres, V. and Featherstone, R. M., (1961), Biochem. Pharmacol., 7, 88-95.
The inhibitory effect of each test compound on acethylcholinesterase was determined in terms of 50% inhibitory concentration (IC50).
Each of the compounds was dissolved in physiological saline for use as a test sample.
As for `CCOc1cc2c(cc1OCC)C(=O)C(F)(CC1CCN(Cc3ccccc3)CC1)C2` (stereo not drawn) [Example 1, 1-Benezyl-4-[(5,6-diethoxy-2-flouro-1-indanon)-2-yl]methylpiperidine Hydrochloride], the IC50 is 0.38 nM.
The same measure, in the same setting: in the case of `COc1cc2c(cc1OC)C(=O)C(F)(CC1CCN(Cc3cccc(F)c3)CC1)C2` (stereo not drawn) [Example 4, 4-[(5,6-Dimethoxy-2-flouro-indanon)-2-yl]methyl-1-(3-flourobenzyl)piperidine Hydrochloride] it was 0.47 nM.
The same measure, in the same setting: then `COc1cc2c(cc1OC)C(=O)C(F)(CC1CCN(Cc3cccc(C)c3)CC1)C2` (stereo not drawn) [Example 5, 4-[(5,6-Dimethoxy-2-flouro-1-indanon)-2-yl]methyl-1-(3-methylbenzyl)piperidine Hydrochoride], with 0.82 nM.
With `COc1cc2c(cc1OC)C(=O)C(F)(CC1CCN(CC3CCCCC3)CC1)C2` (stereo not drawn) [Example 6, 1-(-Cyclohexylmethyl-4-[(5,6-dimethoxy-2-flouro-1-indanon)-2-yl]methylpiperidine Hydrochloride], the IC50 is 1.7 nM.
The same measure, in the same setting: in the case of `COc1cc2c(cc1OC)C(=O)C(F)(CC1CCN(Cc3cccc([N+](=O)[O-])c3)CC1)C2` (stereo not drawn) [Example 11, 4-[(5,6-Dimethoxy-2-flouro-1-indanon)-2-yl]methyl-1-(3-nitrobenzyl)piperidine Hydrochloride] it was 0.7 nM.
In the case of `COc1ccc2c(c1)CC(F)(CC1CCN(Cc3ccccc3)CC1)C2=O` (stereo not drawn) [Example 12, 1-Benzyl-4-[(5-methoxy-2-flouro-1-indanon)-2-yl]methylpiperidine Hydrochloride], the IC50 was 1.2 nM.
Still for that read-out and setting: then `COc1cc2c(cc1OC)C(=O)C(F)(CCCC1CCN(Cc3ccccc3)CC1)C2` (stereo not drawn) [Example 14, 1-Benzyl-4-[3-[5,6-dimethoxy-2-flouro-1-indanon)-2-yl]propyl]piperidine Hydrochloride], with 1.4 nM; and `COc1cc2c(cc1OC)C(=O)C(F)(CC1CCN(Cc3ccc(O)cc3)CC1)C2` (stereo not drawn) [Example 15, 4-[(5,6-Dimethoxy-2-flouro-1-indanon)-2-yl]methyl-1-(4-hydroxybenzyl)piperidine Hydrochloride], with 0.32 nM; and `CCCOc1cc2c(cc1OCCC)C(=O)C(F)(CC1CCN(Cc3ccccc3)CC1)C2` (stereo not drawn) [Example 17, 1-Benzyl-4-[[[5,6-di-(1-propyloxy)]-2-flouro-1-indanon-2-yl]methylpiperidine Hydrochloride], with 0.89 nM.
